Laboratory results published in US6911443B2 (Bayer Aktiengesellschaft, priority 2000, dated 2005).

Molecular target: T1, human Syk (GST-Syk) (Homo sapiens, UniProt P43405)
T1 construct: A cDNA fragment encoding human Syk openreading frame was cloned; made in house; host or cells: Sf21 insect cells (baculovirus, transfer vector pAcG2T)
Test: Syk tyrosine kinase inhibitory assay
Type: biochemical
Settings: in vitro; compounds as yielded by solid phase synthesis, purity about 40 to 90%
In short: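 GST-tagged human Syk from baculovirus/Sf21, 0.65 nM final, with 3 μM biotinylated 30-residue activation-loop peptide and 30 μM ATP in Tris pH 8.0/MgCl2 buffer, 0.25% DMSO; 1 h at room temperature. Phosphopeptide captured on streptavidin, detected by europium-labelled anti-phosphotyrosine 4G10 time-resolved fluorescence.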

Activity grade (IC50 class)	SMILES
C-D	COc1ccc(-c2cc3nccn3c(N(C)c3ccc(C(=O)O)cc3)n2)cc1OC [Example 11-42]

Same assay, conditions: in vitro; compounds as yielded by solid phase synthesis, purity about 40 to 90%; read-out: Activity grade (IC50 class)

IC50 [nM]	SMILES
< 500	COc1ccc(-c2cc3nccn3c(Nc3cccc(CO)c3)n2)cc1OC [Example 11-37]
< 500	COc1ccc(-c2cc3nccn3c(Nc3cc(F)cc(F)c3)n2)cc1OC [Example 11-39]
< 500	COc1ccc(-c2cc3nccn3c(Nc3cc(F)c(F)cc3F)n2)cc1OC [Example 11-40]
< 500	COc1ccc(-c2cc3nccn3c(Nc3ccc(F)cc3C(=O)O)n2)cc1OC [Example 11-41]
< 500	COc1ccc(-c2cc3nccn3c(N(C)c3ccc([N+](=O)[O-])cc3)n2)cc1OC [Example 11-43]
< 500	COc1ccc(-c2cc3nccn3c(N(C)c3ccc(F)cc3F)n2)cc1OC [Example 11-44]
500 to 2000	COc1ccc(-c2cc3nccn3c(N(C)c3ccc(Cl)cc3)n2)cc1OC [Example 11-45]
500 to 2000	COc1ccc(-c2cc3nccn3c(N(C)c3ccc(OC(F)(F)F)cc3)n2)cc1OC [Example 11-46]
< 500	C=CCN(c1ccccc1)c1nc(-c2ccc(OC)c(OC)c2)cc2nccn12 [Example 11-47]
< 500	COc1ccc(-c2cc3nccn3c(N(CCC#N)c3ccccc3)n2)cc1OC [Example 11-48]
500 to 2000	COc1ccc(N(C)c2nc(-c3ccc(OC)c(OC)c3)cc3nccn23)cc1 [Example 11-49]
< 500	COc1ccc(-c2cc3nccn3c(N(C)c3cccc(Cl)c3)n2)cc1OC [Example 11-50]
500 to 2000	COc1ccc(-c2cc3nccn3c(Nc3cccc(C(=O)O)c3C)n2)cc1OC [Example 11-51]
< 500	COc1ccc(-c2cc3nccn3c(Nc3cccc(Br)c3)n2)cc1OC [Example 11-52]
< 500	COc1ccc(-c2cc3nccn3c(Nc3ccccc3F)n2)cc1OC [Example 11-53]
< 500	COc1ccc(-c2cc3nccn3c(Nc3ccc(F)cc3F)n2)cc1OC [Example 11-54]
< 500	COc1ccc(-c2cc3nccn3c(Nc3ccccc3Cl)n2)cc1OC [Example 11-55]

IC50 [nM]	SMILES
< 500	COc1ccc(-c2cc3nccn3c(Nc3ccccc3[N+](=O)[O-])n2)cc1OC [Example 11-56]
< 500	COc1ccc(-c2cc3nccn3c(Nc3ccc(F)c(F)c3)n2)cc1OC [Example 11-57]
< 500	COc1cccc(Nc2nc(-c3ccc(OC)c(OC)c3)cc3nccn23)c1 [Example 11-58]
< 500	COc1ccc(-c2cc3nccn3c(Nc3cccc(C(C)=O)c3)n2)cc1OC [Example 11-59]
< 500	COc1ccc(-c2cc3nccn3c(Nc3ccc(F)cc3)n2)cc1OC [Example 11-60]
< 500	COc1ccc(-c2cc3nccn3c(Nc3ccc(Cl)cc3)n2)cc1OC [Example 11-61]
< 500	COc1ccc(-c2cc3nccn3c(Nc3ccc(N)cc3)n2)cc1OC [Example 11-62]
< 500	COc1ccc(-c2cc3nccn3c(Nc3ccc(CC#N)cc3)n2)cc1OC [Example 11-63]
< 500	COc1ccc(Nc2nc(-c3ccc(OC)c(OC)c3)cc3nccn23)c(OC)c1 [Example 11-65]
< 500	COc1ccc(-c2cc3nccn3c(Nc3cccc(C(=N)N)c3)n2)cc1OC [Example 11-66]
< 500	COc1ccc(-c2cc3nccn3c(Nc3ccc(C(=N)N)cc3)n2)cc1OC [Example 11-67]
< 500	CCN(CCO)c1ccc(Nc2nc(-c3ccc(OC)c(OC)c3)cc3nccn23)cc1 [Example 11-68]
< 500	COc1ccc(-c2cc3nccn3c(Nc3cccc(OC(F)(F)F)c3)n2)cc1OC [Example 11-69]
< 500	COc1ccc(-c2cc3nccn3c(Nc3cccc([N+](=O)[O-])c3)n2)cc1OC [Example 11-70]
< 500	COc1ccc(-c2cc3nccn3c(Nc3ccc(C(F)(F)F)cc3)n2)cc1OC [Example 11-71]
< 500	CNC(=O)c1cccc(Nc2nc(-c3ccc(OC)c(OC)c3)cc3nccn23)c1 [Example 11-72]
